In PMC10119282, “Molecular characterization of AIFM2/FSP1 inhibition by iFSP1-like molecules” (Cell Death & Disease, 2023):

Tests used:
[1] = test system: Pfa1 Gpx4−/− overexpressing chimeric FSP1 C2; experiment: Cell viability (Alamar blue), chimeric construct C2; format: cell-based, murine; settings: Mus musculus; chimeric construct C2 (human residues 59 to 120); x axis iFSP1 (μM); read-out: IC50 (dose-response toxicity)
Experimental: (§1) Cell Lines. 4-hydroxytamoxifen (TAM)-inducible Gpx4^−/− murine immortalized fibroblasts (Pfa1) were reported previously. These cells harbor two loxP-flanked Gpx4 alleles and stably express TAM inducible Cre recombinase allowing the genetic deletion of Gpx4 at will. For all experiments using Gpx4^−/− the well were treated with 4-hydroxitamoxifen (TAM) 1 µM. All cells were cultured with were cultured in DMEM-high glucose (4.5 g glucose/L) with 10% fetal bovine serum (FBS), Glutamax, and 1% penicillin/streptomycin (Gibco, Thermo Fischer) at 37 °C with 5% CO2 and verified to be negative for mycoplasma.
(§2) Cell viability assays. Alamar Blue method: Cells were seeded on 96-well plates (2000 cells per well) and treated with the compounds RSL3, iFSP1 and (liproxstatin-1) after plating. Cell viability was assessed 48 h (unless stated otherwise) after treatment using Alamar Blue as an indicator of viable cells. Alamar blue solution was made by dissolving of 1 g resazurin sodium salt (Thermo Fischer) in 200 mL sterile PBS and sterile filtrated through a 0.22 µm filter. Stock solutions were stored at 4 °C. The working solution was made freshly by adding 200 µL of the stock solution to 25 mL growth media. After 2–4 h incubation time, viability was estimated by measuring the fluorescence using a 540/35 excitation filter and a 590/20 emission on a Spark® microplate reader (Tecan, Zürich, Switzerland). […]

[2] = Water solubility; format: physicochemical
[3] = test system: Pfa1 Gpx4−/− overexpressing mFSP1 L360F; experiment: Cell viability (Alamar blue), mFSP1 L360F; format: cell-based, murine
Experimental: as §1
(§3) Cell viability assays. Alamar Blue method: Cells were seeded on 96-well plates (2000 cells per well) and treated with the compounds RSL3, iFSP1 and (liproxstatin-1) after plating. Cell viability was assessed 48 h (unless stated otherwise) after treatment using Alamar Blue as an indicator of viable cells. Alamar blue solution was made by dissolving of 1 g resazurin sodium salt (Thermo Fischer) in 200 mL sterile PBS and sterile filtrated through a 0.22 µm filter. Stock solutions were stored at 4 °C. The working solution was made freshly by adding 200 µL of the stock solution to 25 mL growth media. After 2–4 h incubation time, viability was estimated by measuring the fluorescence using a 540/35 excitation filter and a 590/20 emission on a Spark® microplate reader (Tecan, Zürich, Switzerland).

[4] = test system: Pfa1 Gpx4−/− overexpressing chimeric FSP1 C5; experiment: Cell viability (Alamar blue), chimeric construct C5; format: cell-based, murine; settings: Mus musculus; chimeric construct C5 (human residues 241 to 300); x axis iFSP1 (μM); read-out: IC50 (dose-response toxicity)
Experimental: as §1, §2

[5] = test system: Pfa1 Gpx4−/− cell line overexpressing hFSP1, mFSP1 and hFSP1 F360L mutants; experiment: BODIPY 581/591 C11 oxidation (flow cytometry); format: cell-based, murine; settings: iFSP1 3 µM for 3 h; all conditions, highest for hFSP1 WT
Experimental: In total, 150,000 cells per well were seeded on 6-well dishes one day prior to the experiment. […] Cells were incubated with C11-BODIPY (581/591) (1 μM) for 30 min at 37 °C before they were harvested by trypsinisation. Subsequently, cells were resuspended in 500 μL of fresh PBS (DPBS, Gibco) and analyzed using a 488-nm laser excitation laser and fluorescence recorded on a (FACS Canto II, BD Biosciences). Data was collected from the FL1 detector (C11-BODIPY, Invitrogen) with a 502LP and 530/30 BP filter. At least 20,000 events were analyzed per sample. Data was analyzed using FlowJo Software version 10.8.1.

[6] = test system: Pfa1 Gpx4−/− overexpressing chimeric FSP1 C4; experiment: Cell viability (Alamar blue), chimeric construct C4; format: cell-based, murine; settings: Mus musculus; chimeric construct C4 (human residues 181 to 240); x axis iFSP1 (μM); read-out: IC50 (dose-response toxicity)
Experimental: as §1, §2

[7] = test system: Pfa1 Gpx4−/− overexpressing chimeric FSP1 C3; experiment: Cell viability (Alamar blue), chimeric construct C3; format: cell-based, murine; settings: Mus musculus; chimeric construct C3 (human residues 121 to 180); x axis iFSP1 (μM); read-out: IC50 (dose-response toxicity)
Experimental: as §1, §2

[8] = test system: Pfa1 Gpx4−/− overexpressing chimeric FSP1 C6; experiment: Cell viability (Alamar blue), chimeric construct C6; format: cell-based, murine
Experimental: as §1, §2

[9] = test system: Pfa1 Gpx4−/− overexpressing hFSP1 Y296A; experiment: Cell viability (Alamar blue), hFSP1 Y296A; format: cell-based, murine
Experimental: as §1, §3

[10] = Mus musculus, x axis iFSP1 (μM), read-out: IC50 (dose-response toxicity)

Cc1ccc(-c2c(C#N)c(N)n3c(nc4ccccc43)c2C#N)cc1 [iFSP1]
IC50 [1]: 6.2 µM
water solubility [2]: poor
iFSP1-mediated inhibition of FSP1 (ferroptosis induction) [3]: restored the iFSP1-mediated inhibition of mFSP1
IC50 [3, 10]: 0.95 µM
IC50 [4]: 6.82 µM
BODIPY-C11 oxidation induced by iFSP1 [5]: small increase
IC50 [6]: 8.96 µM
IC50 [7]: 8.71 µM
IC50 ([8]; Mus musculus, chimeric construct C6 (human residues 301 till 373), x axis iFSP1 (μM), read-out: IC50 (dose-response toxicity)): 1.64 µM
induction of ferroptosis ([8]; chimera C6): underwent ferroptosis upon iFSP1 treatment
inhibitor activity (ferroptosis induction) [9]: abolishes the inhibitor activity
IC50 [9, 10]: 5.62 µM
